In assay [1] the test system is IL-17 production by CD4 T cells. The assay can be described thus: Human Th17 assay. Format: cell-based. As to conditions: 3 days. From the text:
The human Th17 assay tests the effect of RORγt modulatory compounds on IL-17 production by CD4 T cells under conditions which favor Th17 differentiation.
Total CD4^+ T cells were isolated from the peripheral blood mononuclear cells (PBMC) of healthy donors using a CD4^+ T cell isolation kit II, following the manufacturer's instructions (Miltenyi Biotec). Cells were resuspended in a medium of RPMI-1640 supplemented with 10% fetal bovine serum, penicillin, streptomycin, glutamate, and β-mercaptoethanol and were added to 96-well plates at 1.5×10^5 per 100 μL per well. 50 μL of compound at titrated concentrations in DMSO were added into each well at final DMSO concentration at 0.2%. Cells were incubated for 1 hour, then 50 μL of Th17 cell differentiation medium was added to each well. The final concentrations of antibodies and cytokines (R&D Systems) in differentiation medium were: 3×10^6/mL anti-CD3/CD28 beads (prepared using human T cell activation/expansion kit, Miltenyi Biotec), 10 μg/mL anti-IL4, 10 μg/mL anti-IFNγ, 10 ng/mL IL1β, 10 ng/mL IL23, 50 ng/mL IL6, 3 ng/mL TGFβ and 20 U/mL IL2. Cells were cultured at 37° C. and 5% CO2 for 3 days. Supernatants were collected and the accumulated IL-17 in culture was measured by using MULTI-SPOT® Cytokine Plate following manufacture's instruction (Meso Scale Discovery). The plate was read using Sector Imager 6000, and IL-17 concentration was extrapolated from the standard curve. The IC50s were determined by GraphPad.

In assay [2] the target is T1, wild type human RORγt LBD fused to the DNA binding domain of the GAL4 protein (Homo sapiens, UniProt P51449).
T1 construct: expressed in transfected cells; host or cells: HEK293T
T1 sequence (P51449 258-518): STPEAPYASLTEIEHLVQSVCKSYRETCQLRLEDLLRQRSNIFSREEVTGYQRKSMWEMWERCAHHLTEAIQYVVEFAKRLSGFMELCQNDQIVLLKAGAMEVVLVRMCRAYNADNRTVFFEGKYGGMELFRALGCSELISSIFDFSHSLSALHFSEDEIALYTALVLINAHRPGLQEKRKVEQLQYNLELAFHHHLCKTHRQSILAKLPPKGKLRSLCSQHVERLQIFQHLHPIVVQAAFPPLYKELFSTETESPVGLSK
Kind of assay: RORγt reporter assay. It counts as cell-based. As to conditions: HEK293T cells. From the text: A reporter assay was used to test functional activity of RORγt modulatory compounds on transcriptional activation driven by the RORγt LBD. Cells used in the assay were co-transfected with two constructs. The first construct, pBIND-RORγt LBD, contained the wild type human RORγt LBD fused to the DNA binding domain of the GAL4 protein. The second construct, pGL4.31 (Promega Cat no. C935A), contained multiple GAL4 responsive DNA elements upstream of firefly luciferase. […] The mutant construct was called pBIND-RORγt-AF2.
The pBIND vector contains the GAL4 DNA Binding Domain (GAL4 DBD) and the renilla luciferase gene under control of the SV40 promoter. […]
The reporter assay was performed by transiently transfecting HEK293T cells with 5 μg of pBIND-RORγt LBD or pBIND-RORγt LBD-AF2 and 5 μg pGL4.31 (Promega Cat no. C935A) using Fugene 6 (Invitrogen Cat no. E2691) at a 1:6 ratio of DNA: Fugene 6 in a T-75 flask in which cells were at least 80% confluent. […] Dual Glo Luciferase Reagent (50 μL/well) was then added and firefly luciferase luminescence was read on an Envision after a ten minute incubation. Finally, Stop and Glo reagent (50 μL/well) was added and renilla luciferase luminescence was read on an Envision after a ten minute incubation. To calculate the effect of compounds on RORγt activity, the ratio of firefly to renilla luciferase was determined and plotted against compound concentration. […]

In assay [3] the target is T2, human RORγt ligand binding domain (RORγt LBD) (Homo sapiens, UniProt P51449).
T2 construct: His-tag (N); TurboTEV protease cleavage site (ENLYFQG) (N); made in house; host or cells: E. coli (pHIS1, modified pET vector)
T2 sequence (P51449 with tags, fused parts or gaps): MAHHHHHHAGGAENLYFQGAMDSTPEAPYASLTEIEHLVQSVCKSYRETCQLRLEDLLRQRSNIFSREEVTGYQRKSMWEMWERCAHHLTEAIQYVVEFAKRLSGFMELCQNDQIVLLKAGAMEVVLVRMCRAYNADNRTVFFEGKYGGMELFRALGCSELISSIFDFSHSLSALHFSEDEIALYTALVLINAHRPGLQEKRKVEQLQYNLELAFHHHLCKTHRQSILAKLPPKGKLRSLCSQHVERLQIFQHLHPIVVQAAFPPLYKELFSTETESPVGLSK
Kind of assay: RORγt ThermoFluor assay. As for the experimental part: This approach is applicable to a wide variety of systems, and rigorous in theoretical interpretation through quantitation of equilibrium binding constants (KD).
The shift in the melting point described as a ΔTm is proportional to the concentration and affinity of the ligand. The compound potency may be compared as a rank order of either ΔTm values at a single compound concentration or in terms of KD values, estimated from concentration response curves.
ThermoFluor® experiments were carried out using instruments owned by Janssen Research and Discovery, L.L.C. through its acquisition of 3-Dimensional Pharmaceuticals, Inc. 1,8-ANS (Invitrogen) was used as a fluorescent dye. […]
Bar-coded assay plates are robotically loaded onto a thermostatically controlled PCR-type thermal block and then heated at a typical ramp-rate of 1° C./min for all experiments. Fluorescence was measured by continuous illumination with UV light (Hamamatsu LC6) supplied via fiber optic and filtered through a band-pass filter (380-400 nm; >6 OD cutoff). Fluorescence emission of the entire 384-well plate was detected by measuring light intensity using a CCD camera (Sensys, Roper Scientific) filtered to detect 500±25 nm, resulting in simultaneous and independent readings of all 384 wells. […]
In general terms: In DSF a fluorescence change marks the thermal transition of the protein.

SMILES strings stand for the structures.

As for `Cn1cncc1C(O)(c1ccc(C(F)(F)F)nc1)c1ccc2nc(N3CCCC3)c(Oc3ccc(C#N)cc3)c(Cl)c2c1` (stereo not drawn) [Example 2c], the IC50 in assay [1] came out at 100 nM. As to `CCN(CC)c1nc2ccc(C(O)(c3ccccn3)c3cncn3C)cc2c(C#N)c1Oc1ccccc1` (single isomer, unassigned) [Example 5c], in assay [2] (HEK-293T, 6 μM), the inhibition at 6 µM was found to be 103%. In assay [2], `CC(C)(C)OC(=O)N(c1ccccc1)c1c(Cl)nc2ccc(C(O)(c3cccnc3)c3cccc(Cl)c3)cc2c1Cl` (stereo not drawn) [Example 7, tert-Butyl (2,4-dichloro-6-((3-chlorophenyl)(hydroxy)(pyridin-3-yl)methyl)quinolin-3-yl)(phenyl)carbamate] came in with an IC50 of 1400 nM. In assay [3], binding was characterised by a dissociation constant (Kd) of 23000 nM.

`Cn1cncc1C(O)(c1ccc(C(F)(F)F)nc1)c1ccc2nc(N3CCCC3)c(Oc3ccc(C#N)cc3)c(Cl)c2c1` (stereo not drawn) [Example 2a, 4-((4-Chloro-6-(hydroxy(1-methyl-1H-imidazol-5-yl)(6-(trifluoromethyl)pyridin-3-yl)methyl)-2-(pyrrolidin-1-yl)quinolin-3-yl)oxy)benzonitrile]: in assay [1], the concentration for half-maximal inhibition (IC50) is 88 nM. As to `Cn1cncc1C(O)(c1ccc(C(F)(F)F)nc1)c1ccc2nc(N3CCCC3)c(Oc3ccc(C#N)cc3)c(Cl)c2c1` (stereo not drawn) [Example 2b], in assay [1], it took 320 nM to reach half-maximal inhibition (IC50).

As usually defined, the IC50 is the point on the concentration scale where inhibition reaches its midpoint. Broadly, the inhibition is the relative decrease from the control value, in per cent. One may read the Kd as the concentration at which binding is half-saturated. High values mean a looser complex, low ones a tighter complex.

For the origin of these results see patent US9328095B2, “Heteroaryl linked quinolinyl modulators of RORgammat” (Janssen Pharmaceutica NV, priority 2013, dated 2016).
